What all share (assay type): cell-based, human
The subject of one assay is VWF level in HUVEC. Kind of assay: VWF level in HUVEC treated with DAPT (immunofluorescence and immunoblot). On the procedure:
(§1) Cells were fixed with 4% paraformaldehyde in 1×PBS for 15 minutes and subsequently washed three times with 1×PBS. For immunofluorescence, fixed samples were blocked with 5% donkey serum plus 0.1% Triton X-100 in 1×PBS, incubated overnight in 3% bovine serum albumin (BSA) (Sigma Aldrich)+1×PBS with primary antibodies, washed, incubated with secondary antibodies, washed and imaged. Primary antibodies included antibodies for VWF (Agilent Technologies; A008202), β-Actin (Cell Signaling Technology; 4970); DAPI (Cayman Chemical Company; 14285), Angiopoietin 2 (R&D Systems; AF623), CD31 (BD Biosciences; 555444), CD144 (BD Biosciences; 555661), and Notch1 (Cell Signaling Technology; 3608S). Fluorescence labeled antibodies included anti-rabbit IgG secondary antibody Alexa Fluor 488 (Thermo Fisher Scientific; A32731), anti-mouse IgG secondary antibody Alexa Fluor 555 (Thermo Fisher Scientific; A21422), and FITC anti-VWF antibody (Abcam; ab8822). To compare different experimental conditions, images were collected at identical microscopy setup using wide field or confocal fluorescence microscope. Image analysis was performed using Fiji software.
Whole cells lysate was extracted using 1× RIPA lysis and extraction buffer (Thermo Fisher Scientific) supplemented with 1× protease inhibitor cocktail (Sigma Aldrich) and 1 μL Benzonase nuclease (Sigma Aldrich) per sample. […]
Background: Immunoblotting shows a protein as a band on a membrane.

Assay [1] has as its system VWF expression level in hPSC-EC. In words: VWF and CD144 protein in hPSC-EC by immunoblot. On the procedure:
Whole cells lysate was extracted using 1× RIPA lysis and extraction buffer (Thermo Fisher Scientific) supplemented with 1× protease inhibitor cocktail (Sigma Aldrich) and 1 μL Benzonase nuclease (Sigma Aldrich) per sample. Each sample was supplied with 100 mM DTT (Sigma Aldrich) and 1× Laemmli sample buffer (Bio-Rad) and heated at 95° C. for 5 minutes. The primary antibodies above were added to samples and followed by anti-rabbit or anti-mouse IgG secondary antibody conjugated with HRP (Thermo Fisher Scientific; 31460 or 31430). Immunoblots were imaged in the presence of Pierce ECL Western Blotting substrate (Thermo Fisher Scientific) and quantified using Fiji software.
Ten compounds were added separately to hPSC culture medium on day 6 of the cell differentiation and maintained in the media thereafter. The untreated cell culture medium was EGM with additional 20 ng/ml VEGF, 20 ng/ml FGF, and 1 μM Chir99021. Based on untreated cell culture medium, we tested the following additional concentrations of compounds: VEGF (30, 70, 120 ng/ml, Peprotech 100-20), FGF (30, 70, 120 ng/ml, PeproTech 100-18B), human transforming growth factor β1 (TGFβ1, 1, 3, 10 ng/ml, R&D Systems 240-B), lipopolysaccharide (LPS, 1, 3, 10 ng/ml, Santa Cruz sc-3535), human interferon gamma (IFN, 1, 3, 10 ng/ml, Peprotech 300-02), human noggin (1, 3, 10 ng/ml, Peprotech, 120-10C), Chir99021 (1, 3, 10 µM, Reprocell 04-0004-10), Smoothened agonist (SAG, 1, 3, 10 μM, Cayman Chemical 11914), BMP4 (1, 3, 10, 50 ng/ml, R&D Systems 314-BP), or DAPT (1, 3, 10 µM, Tocris 2634). Concentrations of these compounds that were likely to be safe and efficacious were used based on the literature and previous experience. To treat HUVEC with DAPT (Tocris 2634), 0/10/30 μM DAPT was added to the cell culture medium EGM on day 2 after cell passaging and maintained in the media thereafter. The cell culture medium with corresponding compound was changed every two days until cell fixation or cell lysis experiment on day 10-14 for hSPC-EC or day 7-9 for HUVEC.

The next assay concerns hPSC-EC. In words: hPSC-EC maturation: cell size and CD144 junction morphology. To be noted: 0 or 3 μM DAPT. On the procedure: as §1, with “Image analysis was performed using Fiji software.” left out
hPSC-EC were treated with blood plasma or compounds to test their effects on VWF expression level in cells. […] Due to the high fluorescence background in 40% and 80% plasma treated cells, we only used less than 40% plasma to treat cells for immunofluorescence imaging.

Assay [2] has as its system VWF expression level in hPSC-EC. In words: VWF expression level in hPSC-EC by immunofluorescence. On the procedure: as §1, with “Image analysis was performed using Fiji software.” left out
hPSC-EC were treated with blood plasma or compounds to test their effects on VWF expression level in cells. […] Due to the high fluorescence background in 40% and 80% plasma treated cells, we only used less than 40% plasma to treat cells for immunofluorescence imaging. […]

Assay [3] deals with VWF at the hPSC-EC surface. Kind of assay: VWF string formation assay under flow after PMA stimulation. To be noted: 3 μM DAPT from day 6; 100 ng/mL PMA 20 min, flow 2.5 dyn/cm^2 5 min. On the procedure:
The hPSC-EC from day 5 of cell differentiation were seeded in a flow chamber (ibidi GmbH, μ-slide VI 0.4, 17×3.8×0.4 mm) precoated with 2.5 mg/mL collagen (Corning, Rate Tail Collagen Type I). Cells were fed by EGM endothelial cell growth medium+20 ng/ml recombinant human VEGF165+20 ng/mL recombinant human FGF-basic+1 μM Chir-99021 until day 12 of cell differentiation. The flow chamber was washed by 100 μl EBM endothelial cell growth basal medium (Lonza) twice. Cells were stimulated in EBM medium with 100 ng/mL PMA at stasis at 37° C. and 5% CO2 for 20 minutes and then followed by flow (2.5 dyn/cm^2 wall shear stress) using a syringe pump for 5 minutes. After flow stopped, the flow chamber was blocked by 6% BSA (Sigma Aldrich) in EBM medium for 10 minutes. […] Cells were washed by EBM medium for three times and imaged under Olympus wide field fluorescence microscope. […]
VWF forms strings on HUVEC surface upon stimulation by agonists such as phorbol 12-myristate 13-acetate (PMA) (FIG. 10A). […] The effect of enhancing VWF level on VWF string formation was then evaluated. hPSC-EC were transferred into a microfluidic channel on day 5 of differentiation and treated with 3 μM DAPT from day 6 onwards. […] VWF attached to the EC surface was detected live by FITC-labeled anti-VWF antibody, which was introduced under flow. […]

The structures appear in SMILES notation.

As to `C[C@H](NC(=O)Cc1cc(F)cc(F)c1)C(=O)N[C@H](C(=O)OC(C)(C)C)c1ccccc1` [DAPT], in the assay with VWF level in HUVEC (0/10/30 μM DAPT), the “VWF level in HUVEC by immunofluorescence and immunoblot” value is reported as “enhanced VWF level with increased DAPT concentrations”. Besides, in the assay on VWF level in HUVEC (HUVEC, 10 μM DAPT), the “VWF increase compared to untreated controls” value is listed as roughly 1.7 times. Moreover, in assay [1] (DAPT-treated hPSC-EC), the “CD144 marker for EC” value is “does not affect CD144” and the “VWF protein by immunoblot” value is “confirmed the increase in VWF protein”. In assay [1] (hPSC-EC, DAPT 1, 3, 10 μM), the “DAPT final concentration at which VWF protein peaks (immunoblot)” value was roughly 3 µM. Further, in the assay with hPSC-EC, the “Changes in hPSC-EC size or junctional morphology” value is “did not induce the changes”. For the same compound, the “Levels of VWF by immunofluorescence in screen of ten compounds” value in assay [2] (added day 6 of differentiation, DAPT 1 μM) is on record as “substantially increased levels of VWF”. Further, the “Increase of VWF fluorescence intensity vs untreated control, repeated trials” value in assay [2] (final concentration of 1 μM DAPT) is reported as “approximately two-fold”. Besides, in assay [3], the “VWF attached to the EC surface of control hPSC-EC” value is listed as “numerous foci of VWF at the cell surface” and the VWF string formation entry is “formed strings attached to the EC surface”.
